{
  "source": "patent US20120088279A1",
  "about": "“ALGAL LIPID PRODUCTION” (Phycal, Inc., priority 2009, published 2012)",
  "system": "Nannochloropsis sp.",
  "test": "Pulsed chlorate stress with non-destructive lipid extraction of algae culture",
  "type": "cell-based",
  "details": "chlorate stress 18 hours under nutrient-replete conditions, repeated cycles, compared to identical system with the cycle carried out only once",
  "description": "Nannochloropsis sp., a unicellular alga capable of producing large amounts of triacylglycerides, can be grown in f/2 medium with 1/3rd strength Instant Ocean under indoor lighting in 800 L raceway systems either kept moving with a submerged pump or paddlewheel. The algae are first grown under normal, nutrient replete conditions. Upon achieving a set concentration in culture sufficient for economical extraction (e.g., 1.0 g/L), an amount of chlorate sufficient to block nitrogen uptake by the Nannochloropsis is added. The Nannochloropsis culture is then allowed to grow under these conditions of nutrient assimilation inhibition for 18 hours. Twenty five percent of the algae culture is then removed and subjected to a non-destructive extraction process, while ammonia is added to the remaining in an amount sufficient to renew normal nitrogen uptake.\nThe removed portion of the culture is then mixed with dodecane or undecane or a mixture of the two for 15 minutes, during which sonication is applied for 2 seconds at 40 kHz. The mixture is partitioned with the upper solvent level removed by decanting, and the lower aqueous layer is then returned to the original algae culture, in which non-stressed growth has resumed as a result of the addition of ammonia. […]",
  "data": [
    {"smiles": "[O-][Cl+2]([O-])O", "note": "[chlorate]", "values": [
      {"measurement": "levels of lipid obtained during subsequent cycles", "result": "higher levels of lipid"}
    ]}
  ]
}
